Experimental findings from patent publication US20070167513A1, “Crystalline forms of duloxetine free base” (priority 2004, published 2007) are described below.

Each structure is given as a SMILES string. Structures can show the parent of a compound that is named as a salt. Where two headings read alike, the source gives them in different places.

Where [1] appears, read: before exposure to heat or light.
Where [2] appears, read: before exposure to heat or light, Hydrochloride.
Setting [3] is: stress condition 45° C., Hydrochloride.
[4] abbreviates: stress condition 60° C., Hydrochloride.
[5] abbreviates: stress condition UV, Hydrochloride.

Consider `CNCC[C@H](Oc1cccc2ccccc12)c1cccs1` [DULOXETINE HCI (from free base), Duloxetine Hydrochloride], for which the Description result was “White powder” under setting [1], “White powder” under setting [3], “White powder” under setting [4] and “Cream” under setting [5]. Besides, the “SMI (single maximum impurity)” value under setting [2] was 0.05%, the “SMI (single maximum impurity)” value under setting [3] is 0.07%, the “SMI (single maximum impurity)” value under setting [4] amounted to 0.07% and the “SMI (single maximum impurity)” value under setting [5] came to 0.06%. Besides, the Total imp under setting [2] came to 0.11%, the Total imp under setting [3] was determined as 0.12%, the Total imp under setting [4] is recorded as 0.12% and the Total imp under setting [5] is 0.11%. The resistance to degradation result (compared with duloxetine hydrochloride prepared by conventional prior art methods) was “more resistant to degradation”.
`CNCC[C@H](Oc1cccc2ccccc12)c1cccs1` [[…] (from prior art)] [Duloxetine Hydrochloride, reference compound]: the Description entry runs as follows: under setting [1], “White powder”; under setting [3], “Cream coloured”; under setting [4], “Light pink”; under setting [5], “Light brown”. The “SMI (single maximum impurity)” value runs as follows: under setting [2], 0.20%; under setting [3], 0.19%; under setting [4], 0.19%; under setting [5], 0.19%. In addition, the Total imp by setting is: under setting [2], 0.48%; under setting [3], 0.65%; under setting [4], 0.70%; under setting [5], 0.66%.
